From patent US6849576B2, “Plant-activating agent” (Kao Corporation, priority 2000, dated 2005)

Columns and labels:
liverwort callus cells = assay: Reproduction of green cells: liverwort callus cultivation, fresh weight at 10th day; assay type: cell-based, liverwort (Harchantia polymorpha L.); conditions: liverwort callus fresh weight at 10th day (240 hours); relative value, control area = 100; concentrations (ppm) as in Table 7
Method: In case of a unicellular organism, an individual of this organism can be used itself as a green cell. […] When chlorella is used, a test substance acting as a plant-activating agent is added to an inorganic salt medium for chlorella (test area), and the number of cells (cells/ml) when cultivation is conducted for a certain period can be compared with the number of cells (cells/ml) in the non-added system cultivated under the same condition (control area), for calculation. Further, cells in the form of callus can also be used. As the callus, a liverwort (Harchantia polymorpha L.) callus may be exemplified. When a callus is used, the test substance acting as a plant-activating agent is added to e.g. a sterilized medium for calluses (test area), and the weight of callus when cultivation is conducted for a certain period can be compared with the weight of callus of the non-added system cultivated under the same condition (control area), for calculation. In any case, the concentration of the test substance in the test area is not limited but suitably from 0.1 to 1000 ppm in terms of effective components.
100 ml of the medium (MSK2 medium) for liverworts were placed into a 500-ml Erlenmeyer flask, and the flask was capped with a silicon cap having its ventilative property and placed into an autoclave (at a high temperature, under a high pressure, and a sterilized oven) to sterilize the medium (for 20 minutes). Herein, the substance acting as the plant-activating agent was added in a concentration shown in Table 7 into a culturing solution in the test area. After sterilization, the temperature of the medium was returned to a normal temperature. 2 ml of liverwort callus cells under a steady state, which had been sub-cultivated previously, were sucked up by a 2-ml Komagome pipette (measuring pipet) and incubated to the sterilized medium. These operations are conducted in a clean bench when sterilized condition is necessary. Cultivation is carried out in a shaking incubator rotating at 110 rpm at 23° C. under continuous illumination (with illuminance of 10 klx.) with carbon dioxide and humidity under natural conditions. Tenth day (after 240 hours) after starting the cultivation, the whole culturing solution in each area was filtrated under suction, and the fresh weight (raw weight) (g) of the callus cell was measured. This was made as the amount in reproduction of green cells, and the improved degree in reproduction of green cells was measured by the above-described formula.

tomato “Momotato” = assay: Tomato pot test, soil treatment: SPAD value, dry weight, leaf-area, ascorbic acid and nitrate ion in the blade part; assay type: in vivo; conditions: for Concentration of ascorbic acid in the blade part / Concentration of nitrate ion in the blade part / Dry weight of plant / Leaf-area: 3rd day after 7th treatment, relative to control area = 100; for SPAD value: soil treated 7 times weekly, about 50 ml per pot, in 3000-fold Otsuka OKF2, 3rd day after 7th treatment, control area 34.3
Method: (§1) The SPAD values in the test and control areas grown under the same conditions are measured by Minolta Chlorophyll Meter SPAD 502 (supplied by Minolta Co., Ltd.). This is an apparatus to measure the amount of chlorophyll of plants (leaves) without destruction. Raw leaves are inserted into this apparatus and irradiated with light (stroboscopic emission by a xenon lamp). The transmission light is passed through a filter having 670 nm of the maximum wavelength to be absorbed by chlorophyll and another filter having 750 nm of the non-specific absorption band of a polymer such as protein, the difference in light absorption amounts at both wavelengths is measured by an integrated circuit and converted digitally, and then the value is expressed. The value is indicated in terms of numerical values between zero to 80 (SPAD value). The SPAD value has a high correlation with the chlorophyll content per unit area of a leaf. The following regression formula is satisfied between the value (X) measured by SPAD 502 and the chlorophyll content (Y) (mg/100 cm^2) (Shokubutsu Eiyo Jikken Ho (translated as Method for testing nutrition of plants), 2nd press., pp. 366-367 issued on Apr. 20th, 1991 by Hakuyu Sha K. K.).
(§2) The improved degree of the SPAD value in the present invention is calculated as follows: Improved degree of the SPAD value=(SPAD value in test area)−(SPAD value in control area).
(§3) The measuring time of the SPAD is not limited but only necessitates that the area of a leaf of the plant reaches to an area (about 5 mm×5 mm or more) measurable by a SPAD meter after a treatment with the substance acting as the plant-activating agent. The measurement of the SPAD value is carried out at least 20 times on the same leaf position of a plant treated with the substance acting as the plant-activating agent and of another plant not treated with the substance acting as a plant-activating agent, and the average value thereof is used.
(§4) The increased amount in weight of a plant (b) is calculated from fresh weights or dry weights in the test area and control area in which plants have been grown under the same conditions, like in the above-mentioned [i]. […] The weight of a plant is measured as follows. Each and all plants treated with the substance acting as the plant-activating agent (test area) and not treated with the substance acting as the plant-activating agent (control area) are taken out of a cultivation apparatus (e.g. a pot), soil and contaminations adhering to roots are washed away by running water sufficiently, and respective weights are measured (fresh weight). Each of the plants is dried at 70° C. for 5 days and the weight thereof after the drying is measured (dry weight). Increased amounts in weight of plants are calculated respectively by the following manner. Herein, though any of the fresh weight and dry weight may be calculated, the dry weight is preferably calculated for directly reflecting the net weight of an anabolite (assimilate). Increased amount (%) in weight (fresh weight) of a plant=[(fresh weight in test area−fresh weight in control area)/(fresh weight in control area)]×100 Increased amount (%) in weight (dry weight) of a plant=[(dry weight in test area−dry weight in control area)/(dry weight in control area)]×100
(§5) The improved degree of leaf-area of a plant (c) is calculated from leaf-area of whole plants in the test area and control area in which plants have been grown in the same conditions, like in the above-mentioned [i]. The improved degree is preferably not less than 5%, more preferably not less than 7% and most preferably not less than 9%. In the present invention, the improved degree of leaf-area is measured using an automatic planimeter AAC-400 model (supplied by Hayashi Denko K. K.). This automatic planimeter is a device to detect, by a photo-electric element, the extent of blockage of scanning beam by a sample. According to this device, the minimum unit is 1 mm^2, the maximum display number can be shown up to 99999.99 cm^2. […]

spinach “Esper” = assay: Spinach pot test, soil treatment: SPAD value, dry weight, leaf-area, ascorbic acid and nitrate ion in the blade part; assay type: in vivo; conditions: 3rd day after 5th treatment; for Concentration of ascorbic acid in the blade part / Concentration of nitrate ion in the blade part / Dry weight of plant / Leaf-area: relative to control area = 100; for SPAD value: soil treated 5 times weekly, about 150 ml per pot, in water, control area 43.1
Method: as §1, §2, §3, §4, §5

Compound	Improved degree in reproduction of green cells (liverwort callus cells)	Concentration of ascorbic acid in the blade part (tomato “Momotato”) [%]	Concentration of nitrate ion in the blade part (tomato “Momotato”) [%]	Dry weight of plant (tomato “Momotato”) [%]	Leaf-area (tomato “Momotato”) [%]	SPAD value (tomato “Momotato”) [point]	other results
N[C@@H](CCC(=O)[O-])C(=O)[O-].[Na+].[Na+] [Inventive product 5-4, Sodium glutamate]	105	–	–	–	–	–	–
Hexaglycerol monostearate [Inventive product 3-16]	–	119	84	115	108	36.8	–
POE(20) sorbitan monooleate [Comparative product 4-1, reference compound]	–	–	–	–	–	–	Concentration of ascorbic acid in the blade part (spinach “Esper”): 98%; Concentration of nitrate ion in the blade part (spinach “Esper”): 100%; Dry weight of plant (spinach “Esper”): 101%; Leaf-area (spinach “Esper”): 96%; SPAD value (spinach “Esper”): 43.5 point
CCCCCCCCCCCCCCCCCC(=O)OCC(CO)(CO)CO [Inventive product 5-14, Pentaerythritol monostearate]	108	–	–	–	–	–	–
CCCCCCCCCCCCCCCCCCO [Inventive product 5-5, Stearyl alcohol]	140	–	–	–	–	–	–
Sodium POE(3) lauryl ether sulfate [Comparative product 3-4]	–	101	100	100	100	34.9	–
Vitamin B12 [Inventive product 4-2]	–	–	–	–	–	–	Concentration of ascorbic acid in the blade part (spinach “Esper”): 111%; Concentration of nitrate ion in the blade part (spinach “Esper”): 85%; Dry weight of plant (spinach “Esper”): 115%; Leaf-area (spinach “Esper”): 108%; SPAD value (spinach “Esper”): 45.9 point
CCCCCCCC/C=C\CCCCCCCCNC(=O)CC(O)(CC(=O)O)C(=O)O (centres unmarked) [Inventive product 5-8, Citric acid oleyl amide]	125	–	–	–	–	–	–
POE(1) stearyl ether [Inventive product 3-11]	–	116	89	114	108	37	–
CC(C)C[C@H](N)C(=O)O [Inventive product 5-20, L-leucine]	110	–	–	–	–	–	–
Vitamin B12 [Inventive product 5-19]	108	–	–	–	–	–	–
CCCCCCCCCCCCCCCCCCOCCCCCCCCCCCCCCCCCC [Inventive product 3-9, Distearyl ether]	–	134	79	120	112	38.1	–
POE(1) stearyl ether [Inventive product 5-11]	133	–	–	–	–	–	–
Sodium POE(3) lauryl ether sulfate [Comparative product 4-2, reference compound]	–	–	–	–	–	–	Concentration of ascorbic acid in the blade part (spinach “Esper”): 95%; Concentration of nitrate ion in the blade part (spinach “Esper”): 101%; Dry weight of plant (spinach “Esper”): 98%; Leaf-area (spinach “Esper”): 95%; SPAD value (spinach “Esper”): 42.5 point
CC(C)C[C@H](N)C(=O)O [Inventive product 4-6, L-leucine]	–	–	–	–	–	–	Concentration of ascorbic acid in the blade part (spinach “Esper”): 113%; Concentration of nitrate ion in the blade part (spinach “Esper”): 85%; Dry weight of plant (spinach “Esper”): 118%; Leaf-area (spinach “Esper”): 110%; SPAD value (spinach “Esper”): 49.0 point
POE(8) oleyl ether [Comparative product 3-2]	–	102	98	101	103	35.0	–
POE(6) sorbitan monolaurate [Comparative product 3-3]	–	101	99	100	102	35.0	–
CCCCCCCCCCCCCCCCCCOCCCCCCCCCCCCCCCCCC [Inventive product 4-9, Distearyl ether]	–	–	–	–	–	–	Concentration of ascorbic acid in the blade part (spinach “Esper”): 120%; Concentration of nitrate ion in the blade part (spinach “Esper”): 73%; Dry weight of plant (spinach “Esper”): 116%; Leaf-area (spinach “Esper”): 111%; SPAD value (spinach “Esper”): 49.5 point
POE(20) sorbitan tristearate [Comparative product 3-5]	–	102	98	101	101	35.1	–
POE(1) stearyl ether [Inventive product 4-11]	–	–	–	–	–	–	Concentration of ascorbic acid in the blade part (spinach “Esper”): 114%; Concentration of nitrate ion in the blade part (spinach “Esper”): 86%; Dry weight of plant (spinach “Esper”): 112%; Leaf-area (spinach “Esper”): 110%; SPAD value (spinach “Esper”): 46.8 point
POE(20) sorbitan monooleate [Comparative product 3-1]	–	100	99	103	102	35.1	–
